Drawing on patent US20250320184A1 (SIRONAX LTD., priority 2022, published 2025), this text covers IC50 for 33 compounds.

The assay concerns the target T1, SARM1 (50-724) (Homo sapiens, UniProt Q6SZW1).
T1 sequence (Q6SZW1 50-724): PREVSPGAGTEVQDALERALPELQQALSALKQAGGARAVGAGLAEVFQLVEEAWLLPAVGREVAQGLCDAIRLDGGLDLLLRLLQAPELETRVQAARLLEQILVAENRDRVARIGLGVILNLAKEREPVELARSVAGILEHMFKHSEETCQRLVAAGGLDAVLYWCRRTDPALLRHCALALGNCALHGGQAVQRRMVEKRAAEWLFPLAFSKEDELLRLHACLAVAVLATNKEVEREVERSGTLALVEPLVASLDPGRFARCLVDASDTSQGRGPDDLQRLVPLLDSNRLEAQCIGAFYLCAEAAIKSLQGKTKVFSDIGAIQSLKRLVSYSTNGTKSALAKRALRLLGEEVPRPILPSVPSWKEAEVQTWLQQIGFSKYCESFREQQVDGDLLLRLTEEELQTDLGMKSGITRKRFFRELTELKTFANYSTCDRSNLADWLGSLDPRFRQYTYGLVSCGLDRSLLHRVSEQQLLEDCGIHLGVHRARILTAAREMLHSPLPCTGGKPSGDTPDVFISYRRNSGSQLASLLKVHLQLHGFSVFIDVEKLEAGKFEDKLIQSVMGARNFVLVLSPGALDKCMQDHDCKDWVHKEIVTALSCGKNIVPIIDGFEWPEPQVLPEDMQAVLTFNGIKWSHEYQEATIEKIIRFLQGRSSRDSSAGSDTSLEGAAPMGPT
As to the kind of experiment: biochemical.
Experimental: An enzymatic assay was performed in a 384-well plate using Dulbecco's phosphate-buffered saline (PBS) as the reaction buffer. […] The reaction was initiated by adding a mixture of 200 μM nicotinamide mononucleotide (NMN) as activator and 100 μM NAD^+ as substrate. After 1 h of incubation at room temperature, the reaction was terminated with 10 times volume of 70% acetonitrile, then centrifuged at 3800 rpm for 10 min.
The term IC50 denotes the point on the concentration scale where inhibition reaches its midpoint. Read a high IC50 as weaker potency. `CC(Nc1ccc2c(c1)NC(=O)C2(C)C)c1cncc(Cl)c1Cl` (racemic) [Compound 267, 6-((1-(4,5-dichloropyridin-3-yl)ethyl)amino)-3,3-dimethylindolin-2-one] displayed an IC50 below 100 nM.

Turning to `CC1Cc2ccc(NS(=O)(=O)c3cccc(Cl)c3Cl)cc2NC1=O` (racemic) [Compound 269, 2,3-dichloro-N-(3-methyl-2-oxo-3,4-dihydro-1H-quinolin-7-yl)benzenesulfonamide], the 50% inhibitory concentration (IC50) is below 100 nM.

`CC(Nc1cc(F)c2nc[nH]c(=O)c2c1)c1nc(Cl)c(Cl)s1` (racemic) [Compound 271, 6-((1-(4,5-dichlorothiazol-2-yl)ethyl)amino)-8-fluoroquinazolin-4(3H)-one]: the IC50 was below 100 nM.

`CCC(Nc1ccc2c(OC)n[nH]c(=O)c2c1)c1nc(Cl)c(Cl)s1` (racemic) [Compound 272, 7-((1-(4,5-dichlorothiazol-2-yl)propyl)amino)-4-methoxyphthalazin-1(2H)-one] registered an IC50 below 100 nM.

For the compound `CC1(C)CC(O)c2cc(NS(=O)(=O)c3cccc(Cl)c3Cl)ccc21` (racemic) [Compound 274, 2,3-dichloro-N-(3-hydroxy-1,1-dimethyl-2,3-dihydro-1H-inden-5-yl)benzenesulfonamide], the IC50 was below 100 nM.

`Cc1n[nH]c(=O)c2cc(NC(C)c3cncc(Cl)c3Cl)ccc12` (racemic) [Compound 275, 7-((1-(4,5-dichloropyridin-3-yl)ethyl)amino)-4-methylphthalazin-1(2H)-one] gave an IC50 below 100 nM.

Take `CC(Nc1ccc2c(c1)N(C(N)=O)CC2(C)C)c1nc(Cl)c(Cl)s1` (racemic) [Compound 276, 6-((1-(4,5-dichlorothiazol-2-yl)ethyl)amino)-3,3-dimethylindoline-1-carboxamide]: the IC50 was below 100 nM.

Take `CC(Nc1ccc2c(c1)N(CCO)C(=O)C2(C)C)c1nc(Cl)c(Cl)s1` (racemic) [Compound 277, 6-((1-(4,5-dichlorothiazol-2-yl)ethyl)amino)-1-(2-hydroxyethyl)-3,3-dimethylindolin-2-one]: the IC50 is below 100 nM.

As for `CC(Nc1ccc2c(c1)C(=O)NC2(C)C)c1nc(Cl)c(Cl)s1` (racemic) [Compound 278, 6-[1-(4,5-dichlorothiazol-2-yl)ethylamino]-3,3-dimethyl-isoindolin-1-one], the IC50 is below 100 nM.

`CC(Nc1ccc2c(c1)c(C(=O)NCCO)nn2C)c1c(Cl)ccc(F)c1Cl` (racemic) [Compound 282, 5-((1-(2,6-dichloro-3-fluorophenyl)ethyl)amino)-N-(2-hydroxyethyl)-1-methyl-1H-indazol-3-carboxamide]: the IC50 is below 100 nM.

`CC(=O)NC1CCCc2ccc(NS(=O)(=O)c3cccc(Cl)c3Cl)cc21` (racemic) [Compound 283, N-(7-((2,3-dichlorophenyl)sulfonamido)-1,2,3,4-tetrahydronaphthalen-1-yl)acetamide] registered an IC50 below 100 nM.

The compound `CC(Nc1ccc2ccn(CC(N)=O)c(=O)c2c1)c1nc(Cl)c(Cl)s1` (racemic) [Compound 290, 2-(7-((1-(4,5-dichlorothiazol-2-yl)ethyl)amino)-1-oxoisoquinolin-2(1H)-yl)acetamide] came in with an IC50 below 100 nM.

For the compound `CC(Nc1cc(F)c2ncn(CCO)c(=O)c2c1)c1nc(Cl)c(Cl)s1` (racemic) [Compound 297, 6-((1-(4,5-dichlorothiazol-2-yl)ethyl)amino)-8-fluoro-3-(2-hydroxyethyl)quinazolin-4(3H)-one], the 50% inhibitory concentration (IC50) was below 100 nM.

`CC1(C)CC(C#N)c2cc(NS(=O)(=O)c3cccc(Cl)c3Cl)ccc21` (racemic) [Compound 298, 2,3-dichloro-N-(3-cyano-1,1-dimethyl-2,3-dihydro-1H-inden-5-yl)benzenesulfonamide] had an IC50 below 100 nM.

Regarding `Cc1nn(CC(N)=O)c(=O)c2cc(NC(C)c3c(Cl)ccc(F)c3Cl)ccc12` (racemic) [Compound 300, 2-(7-((1-(2,6-dichloro-3-fluorophenyl)ethyl)amino)-4-methyl-1-oxophthalazin-2(1H)-yl)acetamide], the IC50 is below 100 nM.

For the compound `Cc1nn(CCO)c2cc(NC(C)c3nc(Cl)c(Cl)s3)ccc12` (racemic) [Compound 301, 2-(6-((1-(4,5-dichlorothiazol-2-yl)ethyl)amino)-3-methyl-1H-indazol-1-yl)ethan-1-ol], the IC50 is below 100 nM.

On to `O=C1NC(CO)CCc2ccc(NS(=O)(=O)c3cccc(Cl)c3Cl)cc21` (racemic) [Compound 304A, 2,3-dichloro-N-(3-(hydroxymethyl)-1-oxo-2,3,4,5-tetrahydro-1H-benzo[c]azepin-8-yl)benzenesulfonamide], for which the IC50 was below 100 nM.

For `CC(Nc1ccc2ccn(CCO)c(=O)c2c1)c1nc(Cl)c(Cl)s1` (racemic) [Compound 305, 7-((1-(4,5-dichlorothiazol-2-yl)ethyl)amino)-2-(2-hydroxyethyl)isoquinolin-1(2H)-one], the IC50 is below 100 nM.

Regarding `Cc1c2ccc(NC(C)c3nc(Cl)c(Cl)s3)cc2nn1CCO` (racemic) [Compound 307, 2-(6-((1-(4,5-dichlorothiazol-2-yl)ethyl)amino)-3-methyl-2H-indazol-2-yl)ethan-1-ol], the IC50 is below 100 nM.

In the case of `CC(Nc1ccc2cc[nH]c(=O)c2c1)c1nc(Cl)n(C)c1Cl` (racemic) [Compound 308, 7-((1-(2,5-dichloro-1-methyl-1H-imidazol-4-yl)ethyl)amino)isoquinolin-1(2H)-one], the IC50 lay in the range of 100 to 500 nM.

The compound `CC(Nc1ccc2c(c1)c(C(N)=O)nn2C)c1nc(Cl)c(Cl)s1` (racemic) [Compound 310, 5-((1-(4,5-dichlorothiazol-2-yl)ethyl)amino)-1-methyl-1H-indazole-3-carboxamide] came in with an IC50 below 100 nM.

As to `Cc1n[nH]c(=O)c2nc(NC(C)c3nn(C)c(Cl)c3Cl)ccc12` (racemic) [Compound 311, 2-((1-(4,5-dichloro-1-methyl-1H-pyrazol-3-yl)ethyl)amino)-5-methylpyrido[2,3-d]pyridazin-8(7H)-one], the IC50 is below 100 nM.

Consider `Cc1c2ccc(NC(C)c3nc(Cl)c(Cl)s3)cc2nn1CC(N)=O` (racemic) [Compound 312A, 2-(6-((1-(4,5-dichlorothiazol-2-yl)ethyl)amino)-3-methyl-2H-indazol-2-yl)acetamide], for which the IC50 was below 100 nM.

`Cc1n[nH]c(=O)c2nc(NC(C)c3c(Cl)ccc(F)c3Cl)ccc12` (racemic) [Compound 314, 2-((1-(2,6-dichloro-3-fluorophenyl)ethyl)amino)-5-methylpyrido[2,3-d]pyridazin-8(7H)-one] gave an IC50 below 100 nM.

Compound `CC(Nc1ccc2ccn(CC(N)=O)c(=O)c2c1)c1nn(C)c(C2CC2)c1Cl` (racemic) [Compound 315, 2-(7-((1-(4-chloro-5-cyclopropyl-1-methyl-1H-pyrazol-3-yl)ethyl)amino)-1-oxoisoquinolin-2(1H)-yl)acetamide] showed an IC50 below 100 nM.

The compound `Cc1n[nH]c(=O)c2cc(NC(C)c3nn(C)c(Cl)c3Cl)cc(F)c12` (racemic) [Compound 316, 7-((1-(4,5-dichloro-1-methyl-1H-pyrazol-3-yl)ethyl)amino)-5-fluoro-4-methylphthalazin-1(2H)-one] registered an IC50 below 100 nM.

Consider `CC(Nc1ccc2c(c1)N(C(=O)CC(N)=O)CC2(C)C)c1sc(Cl)nc1Cl` (racemic) [Compound 317, 3-(6-((1-(2,4-dichlorothiazol-5-yl)ethyl)amino)-3,3-dimethylindolin-1-yl)-3-oxopropanamide], for which the IC50 is below 100 nM.

In the case of `CC(Nc1cc(F)c2c(c1)C(=O)NC2(C)C)c1nc(Cl)c(Cl)s1` (racemic) [Compound 318, 6-((1-(4,5-dichlorothiazol-2-yl)ethyl)amino)-4-fluoro-3,3-dimethylisoindolin-1-one], the half-maximal inhibitory concentration (IC50) is below 100 nM.

The compound `CC(Nc1ccc2cc[nH]c(=O)c2c1)c1nn(C2CC2)c(Cl)c1Cl` (racemic) [Compound 321, 7-((1-(4,5-dichloro-1-cyclopropyl-1H-pyrazol-3-yl)ethyl)amino)isoquinolin-1(2H)-one] had an IC50 below 100 nM.

In the case of `Cc1cn(CC(N)=O)c(=O)c2nc(NC(C)c3nn(C)c(Cl)c3Cl)ccc12` (racemic) [Compound 324, 2-(2-((1-(4,5-dichloro-1-methyl-1H-pyrazol-3-yl)ethyl)amino)-5-methyl-8-oxo-1,7-naphthyridin-7(8H)-yl)acetamide], the IC50 was below 100 nM.

With `CC(Nc1ccc2cc[nH]c(=O)c2c1)c1nn(C)c(C(F)F)c1Cl` (racemic) [Compound 325, 7-((1-(4-chloro-5-(difluoromethyl)-1-methyl-1H-pyazol-3-yl)ethyl)amino)isoquinolin-1(2H)-one], the IC50 was below 100 nM.

For `Cc1c2ccc(NC(C)c3nc(Cl)c(Cl)s3)cc2nn1C1CCOCC1` (racemic) [Compound 327, N-(1-(4,5-dichlorothiazol-2-yl)ethyl)-3-methyl-2-(tetrahydro-2H-pyran-4-yl)-2H-indazol-6-amine], the IC50 was below 100 nM.

In turn, `CC(Nc1cc(F)c2c(c1)C(=O)N(CC(N)=O)C2(C)C)c1nc(Cl)c(Cl)s1` (racemic) [Compound 328, 2-(5-((1-(4,5-dichlorothiazol-2-yl)ethyl)amino)-7-fluoro-1,1-dimethyl-3-oxoisoindolin-2-yl)acetamide] displayed an IC50 below 100 nM.
